The source made the active and inactive calls. No cut-off for these calls is given here. Some results are limits rather than exact numbers.

The target in data set [1] is T1, Acetylcholinesterase (Electrophorus electricus, UniProt O42275).
Description: Inhibition of electric eel AChE using acetylthiocholine iodide as substrate preincubated for 6 mins prior to substrate addition measured at 60 to 180 seconds by Ellman's method
The target in data set [2] is Amyloid-beta precursor protein (Homo sapiens) (UniProt P05067). Particulars: at 20 µM.
The target of a further data set is Cholinesterase (Equus caballus, UniProt P81908).
Data set [3] has as its target T1, Acetylcholinesterase. As to the kind of experiment: Competitive inhibition of electric eel AChE using acetylthiocholine as substrate by Lineweaver-Burk plot analysis.
Data set [4] in a line: Metal chelating activity assessed as compound-Cu2+ complex formation at 25 uM by UV-vis spectrophotometric analysis. The format is functional.
The nature of data set [5]: Neurotoxicity in human SH-SY5Y cells at 1 uM after 24 hrs by MTT assay relative to control. It is filed as toxicity, cell-based.
The nature of data set [6]: Neurotoxicity in human SH-SY5Y cells at 5 uM after 24 hrs by MTT assay relative to control. The format is toxicity, cell-based. Particulars: read-out: Activity. On the technique in general: Tetrazolium dyes change colour on reduction, which living cells bring about.
Data set [7] can be described thus: Neurotoxicity in human SH-SY5Y cells at 50 uM after 24 hrs by MTT assay relative to control. It is filed as toxicity, cell-based.
Data set [8] in a line: Neurotoxicity in human SH-SY5Y cells at 25 uM after 24 hrs by MTT assay relative to control. The format is toxicity, cell-based.
A short description of data set [9]: Metal chelating activity assessed as compound-Fe2+ complex formation at 25 uM by UV-vis spectrophotometric analysis. The format is functional.
Data set [10] is described as follows: Neurotoxicity in human SH-SY5Y cells at 10 uM after 24 hrs by MTT assay relative to control. The format is toxicity, cell-based.

T1 sequence (O42275 whole entry): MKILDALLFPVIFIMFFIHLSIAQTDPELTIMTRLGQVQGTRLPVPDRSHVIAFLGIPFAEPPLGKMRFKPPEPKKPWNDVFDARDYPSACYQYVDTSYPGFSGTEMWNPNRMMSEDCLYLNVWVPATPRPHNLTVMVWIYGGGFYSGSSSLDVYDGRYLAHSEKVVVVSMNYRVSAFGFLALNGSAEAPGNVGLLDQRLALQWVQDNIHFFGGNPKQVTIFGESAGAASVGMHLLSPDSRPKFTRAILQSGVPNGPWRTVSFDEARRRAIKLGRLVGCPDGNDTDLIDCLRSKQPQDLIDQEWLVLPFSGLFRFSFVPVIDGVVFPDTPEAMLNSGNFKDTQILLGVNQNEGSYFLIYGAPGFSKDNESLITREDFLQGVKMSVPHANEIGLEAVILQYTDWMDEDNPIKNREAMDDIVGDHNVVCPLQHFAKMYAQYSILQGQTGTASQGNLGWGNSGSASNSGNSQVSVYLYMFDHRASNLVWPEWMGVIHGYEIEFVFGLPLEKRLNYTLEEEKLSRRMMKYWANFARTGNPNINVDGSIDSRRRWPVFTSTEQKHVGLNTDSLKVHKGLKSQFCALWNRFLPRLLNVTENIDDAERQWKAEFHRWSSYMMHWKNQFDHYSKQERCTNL
Sequence of Cholinesterase (P81908 whole entry): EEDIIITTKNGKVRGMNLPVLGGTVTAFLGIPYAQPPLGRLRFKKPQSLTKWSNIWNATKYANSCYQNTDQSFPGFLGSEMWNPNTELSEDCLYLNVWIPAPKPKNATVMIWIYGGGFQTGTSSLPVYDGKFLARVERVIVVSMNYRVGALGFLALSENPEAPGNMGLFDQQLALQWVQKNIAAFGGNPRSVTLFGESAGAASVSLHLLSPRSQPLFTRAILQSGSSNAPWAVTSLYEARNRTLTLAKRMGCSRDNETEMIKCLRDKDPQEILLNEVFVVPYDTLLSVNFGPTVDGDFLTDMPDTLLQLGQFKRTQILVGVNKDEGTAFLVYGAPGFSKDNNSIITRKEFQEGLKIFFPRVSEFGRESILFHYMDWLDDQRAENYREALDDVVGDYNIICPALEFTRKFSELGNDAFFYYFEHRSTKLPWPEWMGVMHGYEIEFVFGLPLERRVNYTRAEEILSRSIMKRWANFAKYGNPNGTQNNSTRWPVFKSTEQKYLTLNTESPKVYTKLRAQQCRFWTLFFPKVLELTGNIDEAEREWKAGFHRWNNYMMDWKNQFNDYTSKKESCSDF
Sequence of Amyloid-beta precursor protein (Homo sapiens) (P05067 whole entry): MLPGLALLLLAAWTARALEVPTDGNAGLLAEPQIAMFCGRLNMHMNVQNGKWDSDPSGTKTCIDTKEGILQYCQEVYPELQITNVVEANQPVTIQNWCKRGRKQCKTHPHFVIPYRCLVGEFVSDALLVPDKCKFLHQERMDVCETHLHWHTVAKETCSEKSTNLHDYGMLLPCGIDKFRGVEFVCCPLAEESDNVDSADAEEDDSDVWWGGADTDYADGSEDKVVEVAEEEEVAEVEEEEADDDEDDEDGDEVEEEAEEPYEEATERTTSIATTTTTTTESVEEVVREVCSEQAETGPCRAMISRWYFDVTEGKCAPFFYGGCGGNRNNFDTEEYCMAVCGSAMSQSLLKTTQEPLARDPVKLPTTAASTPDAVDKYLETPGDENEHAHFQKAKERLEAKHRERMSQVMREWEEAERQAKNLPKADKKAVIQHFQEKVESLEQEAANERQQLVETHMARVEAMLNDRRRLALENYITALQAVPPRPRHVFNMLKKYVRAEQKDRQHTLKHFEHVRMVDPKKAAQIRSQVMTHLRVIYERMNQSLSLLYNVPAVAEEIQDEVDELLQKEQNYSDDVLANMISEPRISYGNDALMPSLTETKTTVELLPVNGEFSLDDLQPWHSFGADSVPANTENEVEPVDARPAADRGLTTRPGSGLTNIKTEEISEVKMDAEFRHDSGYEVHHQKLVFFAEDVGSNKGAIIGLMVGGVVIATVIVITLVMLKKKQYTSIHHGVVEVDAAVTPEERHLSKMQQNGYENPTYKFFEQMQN

By IC50 is commonly meant the concentration that inhibits the measured activity by half. In general, inhibition refers to how much of the control response was suppressed. Consider `COc1cc(=O)oc2cc(OCCCCN3CCN(CC(=O)Nc4c5c(nc6ccccc46)CCCC5)CC3)ccc12`, for which the IC50 at Acetylcholinesterase [1] is 237 nM; at Cholinesterase it was 3630 nM. The same molecule came in with an inhibition in [2] of 22.1%.
Taken in the same sequence, the figures for `O=C(CN1CCN(CCCCOc2ccc3c(-c4ccccc4)cc(=O)oc3c2)CC1)Nc1c2c(nc3ccccc13)CCCC2` were 1110 nM, 1820 nM and 28.6%.
Taken in the same sequence, the figures for `O=C(CN1CCN(CCCCOc2ccc3ccc(=O)oc3c2)CC1)Nc1c2c(nc3ccccc13)CCCC2` were 169 nM, 309 nM and 57%.
In the case of `Cc1cc(=O)oc2cc(OCCCCN3CCN(CC(=O)Nc4c5c(nc6ccccc46)CCCC5)CC3)ccc12`, the IC50 stood at 187 nM against Acetylcholinesterase [1] and 147 nM on Cholinesterase. This molecule also had an inhibition in data set [2] of 52.7%.
For `COc1cc(=O)oc2cc(OCCCCCCN3CCN(CC(=O)Nc4c5c(nc6ccccc46)CCCC5)CC3)ccc12` the same measures were 993 nM, 1780 nM and 31.9%.
Taken in the same sequence, the figures for `COc1cc(=O)oc2cc(OCCCCCN3CCN(CC(=O)Nc4c5c(nc6ccccc46)CCCC5)CC3)ccc12` were 357 nM, 730 nM and 30%.
Turning to `O=C(CN1CCN(CCCCCOc2ccc3ccc(=O)oc3c2)CC1)Nc1c2c(nc3ccccc13)CCCC2`, the IC50 is 310 nM on Acetylcholinesterase [1] and 215 nM against Cholinesterase. This molecule also yielded an inhibition in data set [2] of 52.7%.
With `O=C(CN1CCN(CCCCCOc2ccc3c(-c4ccccc4)cc(=O)oc3c2)CC1)Nc1c2c(nc3ccccc13)CCCC2`, the half-inhibitory concentration (IC50) at Acetylcholinesterase [1] is 1580 nM; at Cholinesterase it was 1270 nM. The molecule further yielded an inhibition in data set [2] of 29.5%.
Regarding `O=C(CN1CCNCC1)Nc1c2c(nc3ccccc13)CCCC2`, the half-maximal inhibitory concentration (IC50) at Acetylcholinesterase [1] is 145000 nM; at Cholinesterase, 22000 nM. The inhibition in data set [2] is 30.3%.
Taken in the same sequence, the figures for `O=c1cc(-c2ccccc2)c2ccc(O)cc2o1` were 258000 nM, more than 500000 nM and 27.1%.
Regarding `COc1cc(=O)oc2cc(O)ccc12`, the IC50 is 208000 nM on Acetylcholinesterase [1] and more than 500000 nM at Cholinesterase. For the same molecule, in data set [2], the inhibition came out at 22.4%.
For the molecule `COc1cc(=O)oc2cc(OCCN3CCN(CC(=O)Nc4c5c(nc6ccccc46)CCCC5)CC3)ccc12`, the IC50 against Acetylcholinesterase [1] is 150 nM; against Cholinesterase it was 5140 nM. Moreover, in data set [2], the inhibition was 21.6%.
`Cc1cc(=O)oc2cc(OCCCN3CCN(CC(=O)Nc4c5c(nc6ccccc46)CCCC5)CC3)ccc12`: the results for the half-inhibitory concentration (IC50) against Acetylcholinesterase [1] and on Cholinesterase were 130 nM and 628 nM, respectively. Besides, in data set [2], the inhibition turned out to be 67.5%.
In the case of `COc1cc(/C=C/C(=O)CC(=O)/C=C/c2ccc(O)c(OC)c2)ccc1O`, in data set [2], the inhibition was found to be 42.4%.
On to `Cc1cc(=O)oc2cc(OCCCCCN3CCN(CC(=O)Nc4c5c(nc6ccccc46)CCCC5)CC3)ccc12`, for which the 50% inhibitory concentration (IC50) is 333 nM on Acetylcholinesterase [1] and 164 nM at Cholinesterase. Also, in [2], the inhibition amounted to 59.8%.
As to `Cc1cc(=O)oc2cc(O)ccc12` [HYMECROMONE], the figures for the IC50 against Acetylcholinesterase [1] and against Cholinesterase were 167000 nM and more than 500000 nM, respectively. In addition, the inhibition in data set [2] worked out at 21.5%.
For `O=C(CN1CCN(CCCOc2ccc3ccc(=O)oc3c2)CC1)Nc1c2c(nc3ccccc13)CCCC2` the same measures were 133 nM, 440 nM and 55.1%.
By Ki is commonly meant the dissociation constant of the complex between target and ligand, obtained from inhibition or displacement. Higher therefore signals a looser hold on the target. `Cc1cc(=O)oc2cc(OCCN3CCN(CC(=O)Nc4c5c(nc6ccccc46)CCCC5)CC3)ccc12`: the Ki on Acetylcholinesterase [3] came out at 81 nM. Besides, the outcome in data set [4] and in [9] was Active. In addition, the Activity in [5] is listed as 96.6%; in [7], 91.5%; in [8], 93.6%; in [10], 104.3%. The viability at 24 h, 5 µM in [6] stood at 94.7%. Besides, the IC50 on Acetylcholinesterase [1] turned out to be 92 nM; at Cholinesterase it was 234 nM.
Take `O=C(CN1CCN(CCOc2ccc3ccc(=O)oc3c2)CC1)Nc1c2c(nc3ccccc13)CCCC2`: the IC50 at Acetylcholinesterase [1] is 150 nM; against Cholinesterase, 493 nM. In data set [2], the inhibition came to 59%.
Take `O=C(CN1CCN(CCCCCCOc2ccc3ccc(=O)oc3c2)CC1)Nc1c2c(nc3ccccc13)CCCC2`: the values for the concentration for half-maximal inhibition (IC50) at Acetylcholinesterase [1] and at Cholinesterase were 646 nM and 210 nM, respectively. The inhibition in data set [2] came out at 57.1%.
Taken in the same sequence, the figures for `O=C(CN1CCN(CCOc2ccc3c(-c4ccccc4)cc(=O)oc3c2)CC1)Nc1c2c(nc3ccccc13)CCCC2` were 373 nM, 1510 nM and 27.2%.
For `COc1cc(=O)oc2cc(OCCCN3CCN(CC(=O)Nc4c5c(nc6ccccc46)CCCC5)CC3)ccc12` the same measures were 166 nM, 1830 nM and 34.9%.
As to `O=c1ccc2ccc(O)cc2o1`, in data set [2], the inhibition is 30.5%.
Turning to `O=C(CN1CCN(CCCOc2ccc3c(-c4ccccc4)cc(=O)oc3c2)CC1)Nc1c2c(nc3ccccc13)CCCC2`, the IC50 against Acetylcholinesterase [1] turned out to be 887 nM; against Cholinesterase it was 3160 nM. In [2], this molecule returned an inhibition of 28.2%.
On to `Cc1cc(=O)oc2cc(OCCCCCCN3CCN(CC(=O)Nc4c5c(nc6ccccc46)CCCC5)CC3)ccc12`, for which the results for the IC50 on Acetylcholinesterase [1] and at Cholinesterase were 398 nM and 99 nM, respectively. The molecule also yielded an inhibition in data set [2] of 57.6%.
Taken in the same sequence, the figures for `O=C(CN1CCN(CCCCCCOc2ccc3c(-c4ccccc4)cc(=O)oc3c2)CC1)Nc1c2c(nc3ccccc13)CCCC2` were 2360 nM, 4510 nM and 27.5%.
